From US7868205B2, “Inhibitors of histone deacetylase” (MethylGene Inc., priority 2003, dated 2011) come the findings set out here.

Each structure is given as a SMILES string.

One may read the IC50 as the midpoint of a concentration-inhibition curve. The low end stands for higher potency, the high end for lower potency.

Assay [1] relates to HCT116 human colon cancer cells. Briefly: MTT assay, antiproliferative activity. Format: cell-based. To be noted: HCT-116, 72 hours. How it is done: (§1) Table 6C provides data on inhibition of HDAC1 enzyme, on antiproliferative activities (HCT116 human colon cancer cells) of the compounds using 3-[4,5-dimethylthiazol-2-yl-2,5-diphenyltetrazolium]bromide (MTT) assay, as well as induction of p21^WAF1/Cip1 tumor suppressor gene.
Compounds at various concentrations were added to human colon cancer HCT116 cells plated in 96-well plates. Cells were incubated for 72 hours at 37° C. in 5% CO2 incubator. MTT (3-[4,5-dimethylthiazol-2-yl]-2,5 diphenyl tetrazolium bromide, Sigma) was added at a final concentration of 0.5 mg/ml and incubated with the cells for 4 hours before an equal volume of solubilization buffer (50% N,N-dimethylformamide, 20% SDS, pH 4.7) was added onto cultured cells. After overnight incubation, solubilized dye was quantified by colorimetric reading at […] using a reference at 630 nM. OD values were converted to cell numbers according to a standard growth curve of the relevant cell line. The concentration which reduces cell numbers to 50% of those of DMSO-treated cells is determined as MTT IC50,
On the technique in general: Tetrazolium dyes change colour on reduction, which living cells bring about.

Another assay addresses human HDAC-1 (Homo sapiens, UniProt Q13547). Briefly: Inhibition of histone deacetylase enzymatic (HDAC-1) activity. It counts as biochemical. The note with it: Table 6C. As for the experimental part:
The following protocol was used to assay the compounds of the invention.
The mixture was pre-incubated for 5 minutes at room temperature. The reaction was started by bringing the temperature to 37° C. and adding 16 μl substrate.

For assay [2], the system named is p21^WAF1/Cip1 tumor suppressor gene. Briefly: p21WAF1/Cip1 assay (p21 promoter-driven luciferase reporter). The note with it: for P21 (HCT116) μM, effective concentration (EC) for induction of p21: HCT116 cells with p21 promoter-driven luciferase, 16 hours, compared with MS-275. Format: cell-based, human. How it is done:
as §1
HCT116 cells were stably transfected with reporter plasmids encoding the p21 promoter-driven luciferase. Cells were treated with indicated concentration of HDAC inhibitors for 16 hours before cells were harvested and luciferase activity analyzed. The effective concentration (EC) of MS-275 was designated as 1 uM. The ability of HDAC inhibitor was compared with that of MS-275 (T. Suzuki, et. al J. Med. Chem., 1999, 3001-3003).
In general terms: Reporter assays use an easily measured gene product as a stand-in for the process of interest.

For assay [3], the system named is HCT116 human colorectal carcinoma cells. Put plainly: Antineoplastic effects on human tumor xenografts in vivo, HCT116. The note with it: hct116 xenograft in mice, daily injection. As for the experimental part:
(§2) Eight to ten week old female BCDI mice (Taconic Labs, Great Barrington, N.Y.) were injected subcutaneously in the flank area with 2×10^6 preconditioned HCTI 16 human colorectal carcinoma cells, A549 human lung cancer, SW48 human colorectal cancer, A431 vulval caracinoma and colo205 human colorectal cancer. Preconditioning of these cells was done by a minimum of three consecutive tumor transplantations in the same strain of nude mice. Subsequently, tumor fragments of approximately 30 mgs were excised and implanted subcutaneously in mice, in the left flank area, under Forene anesthesia (Abbott Labs, Geneva, Switzerland). When the tumors reached a mean volume of 100 mm^3, the mice were treated intravenously, subcutaneously, or intraperitoneally by daily injection, with a solution of the histone deacetylase inhibitor in an appropriate vehicle, such as PBS, DMSO/water, or Tween 80/water, at a starting dose of 10 mg/kg. The optimal dose of the HDAC inhibitor was established by dose response experiments according to standard protocols. Tumor volume was calculated every second day post infusion according to standard methods (e.g., Meyer et al., Int. J. Cancer 43: 851-856 (1989)).
(In xenograft studies the graft and the host belong to different species.)

The subject of the next assay is A549 human lung cancer. Briefly: Antineoplastic effects on human tumor xenografts in vivo, A549. To be noted: A549 xenograft in mice, daily injection. As for the experimental part:
as §2

The next assay has as its system A431 vulval carcinoma. Briefly: Antineoplastic effects on human tumor xenografts in vivo, A431. To be noted: A431 xenograft in mice, daily injection. How it is done:
as §2

Sequence of human HDAC-1 (Q13547 whole entry): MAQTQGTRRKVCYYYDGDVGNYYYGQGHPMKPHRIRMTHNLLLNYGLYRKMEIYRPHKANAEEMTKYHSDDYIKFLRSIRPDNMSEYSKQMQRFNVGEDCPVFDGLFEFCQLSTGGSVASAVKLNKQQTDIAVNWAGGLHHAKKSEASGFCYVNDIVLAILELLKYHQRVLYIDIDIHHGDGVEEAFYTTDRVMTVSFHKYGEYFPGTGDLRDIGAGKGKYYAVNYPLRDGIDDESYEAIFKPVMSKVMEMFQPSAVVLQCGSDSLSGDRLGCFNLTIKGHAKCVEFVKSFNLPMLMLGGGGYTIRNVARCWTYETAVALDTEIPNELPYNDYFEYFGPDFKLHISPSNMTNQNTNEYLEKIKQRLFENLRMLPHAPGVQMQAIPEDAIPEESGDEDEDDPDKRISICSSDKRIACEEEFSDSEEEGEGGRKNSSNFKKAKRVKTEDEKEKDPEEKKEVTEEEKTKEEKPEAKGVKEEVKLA

Take `CN(C)CCOC(=O)Nc1ccc(C(=O)Nc2cc(-c3cccs3)ccc2N)cc1` [164cc, 2-(dimethylamino)ethyl 4-((2-amino-5-(thiophen-2-yl)phenyl)carbamoyl)phenylcarbamate]: the IC50 (in assay [1]; on human HDAC-1) was less than 1 µM throughout. Besides, in assay [2], the “P21 (HCT116) μM, effective concentration (EC) for induction of p21” value (“P21 (HCT116) μM, effective concentration” for short) is listed as “b (1≦b≦20)”.
Regarding `CC(=O)Nc1ccc(C(=O)Nc2cc(-c3cccs3)ccc2N)cc1` [258aa, 4-acetamido-N-(2-amino-5-(thiophen-2-yl)phenyl)benzamide], the antineoplastic effects entry (in assay [3]; in the assay on A549 human lung cancer; in the assay on A431 vulval carcinoma) was “antineoplastic effects” throughout. In assay [1], this compound had an IC50 of less than 1 µM. Besides, the “P21 (HCT116) μM, effective concentration” value in assay [2] is “b (1≦b≦20)”.
As to `Nc1ccc(-c2cccs2)cc1NC(=O)c1ccc2ncccc2c1` [258cc, N-(2-amino-5-(thiophen-2-yl)phenyl)quinoline-6-carboxamide], the IC50 (in assay [1]; against human HDAC-1) was less than 1 µM each time. Further, in assay [2], the “P21 (HCT116) μM, effective concentration” value is “b (1≦b≦20)”.
`Cc1cc(C)nc(N(C)c2ccc(C(=O)Nc3cc(-c4cccs4)ccc3N)cc2)n1` [258hh, N-(2-amino-5-(thiophen-2-yl)phenyl)-4-((4,6-dimethylpyrimidin-2-yl)(methyl)amino)benzamide]: the IC50 (in assay [1]; against human HDAC-1) was less than 1 µM each time. The “P21 (HCT116) μM, effective concentration” value in assay [2] is recorded as “b (1≦b≦20)”.
As for `Nc1ccc(-c2cccs2)cc1NC(=O)c1ccc(OC(=O)c2ccc(O)cc2)cc1` [258mm, 4-((2-amino-5-(thiophen-2-yl)phenyl)carbamoyl)phenyl 4-hydroxybenzoate], the IC50 (in assay [1]; on human HDAC-1) was less than 1 µM in each case. Also, the “P21 (HCT116) μM, effective concentration” value in assay [2] was “b (1≦b≦20)”.
With `Nc1ccc(-c2cccs2)cc1NC(=O)c1ccsc1` [258nn, N-(2-amino-5-(thiophen-2-yl)phenyl)thiophene-3-carboxamide], the figures for the 50% inhibitory concentration (IC50) (in assay [1]; against human HDAC-1) were 1 to 20 µM and less than 1 µM, respectively. Moreover, the “P21 (HCT116) μM, effective concentration” value in assay [2] is recorded as “b (1≦b≦20)”.
Regarding `Nc1ccc(-c2cccs2)cc1NC(=O)c1ccc(O)cc1` [258pp, N-(2-amino-5-(thiophen-2-yl)phenyl)-4-hydroxybenzamide], the IC50 (in assay [1]; against human HDAC-1) was less than 1 µM in each case. The “P21 (HCT116) μM, effective concentration” value in assay [2] is reported as “b (1≦b≦20)”.
Turning to `COc1ccc(C(=O)Nc2cc(-c3cccs3)ccc2N)cc1` [258qq, N-(2-amino-5-(thiophen-2-yl)phenyl)-4-methoxybenzamide], the IC50 (in assay [1]; at human HDAC-1) was less than 1 µM throughout. Also, the “P21 (HCT116) μM, effective concentration” value in assay [2] is “b (1≦b≦20)”.
On to `Cc1nc2ccc(C(=O)Nc3cc(-c4cccs4)ccc3N)cc2o1` [286aa, N-(2-amino-5-(thiophen-2-yl)phenyl)-2-methylbenzo[d]oxazole-6-carboxamide], for which the concentration for half-maximal inhibition (IC50) (in assay [1]; against human HDAC-1) was less than 1 µM in each case. Besides, in assay [2], the “P21 (HCT116) μM, effective concentration” value is “b (1≦b≦20)”.
On to `Nc1ccc(-c2cccs2)cc1NC(=O)c1ccc(CNC(=O)OCc2cccnc2)cc1` [Compound 143a], for which, in assay [1], the IC50 is less than 1 µM.
With `Nc1ccc(-c2cccs2)cc1NC(=O)c1ccc(F)cc1` [Compound 143b], the IC50 was 1 to 20 µM in assay [1] and less than 1 µM on human HDAC-1.
For `Nc1ccc(-c2cccs2)cc1NC(=O)c1ccc(SC(F)(F)F)cc1` [Compound 143c] the same measures were 1 to 20 µM and less than 1 µM.
On to `Cc1ccc(S(=O)(=O)Nc2ccc(/C=C/C(=O)Nc3cc(-c4cccs4)ccc3N)cc2)cc1` [Compound 146], for which the half-inhibitory concentration (IC50) (in assay [1]; against human HDAC-1) was less than 1 µM in each case.
In the case of `CN1CCN(C(=O)Nc2ccc(C(=O)Nc3cc(-c4cccs4)ccc3N)cc2)CC1` [Compound 164], the IC50 (in assay [1]; against human HDAC-1) was less than 1 µM in each case.
`N#Cc1ccc(C(=O)Nc2cc(-c3cccs3)ccc2N)cc1` [Compound 173]: the IC50 in assay [1] was 1 to 20 µM; at human HDAC-1, less than 1 µM.
As for `COc1cccc(C(=O)Nc2cc(-c3cccs3)ccc2N)c1` [Compound 181], the IC50 (in assay [1]; against human HDAC-1) was less than 1 µM throughout.
Turning to `CC(=O)Oc1ccc(C(=O)Nc2cc(-c3cccs3)ccc2N)cc1` [Compound 184], the IC50 (in assay [1]; against human HDAC-1) was less than 1 µM each time.
In the case of `Nc1ccc(-c2cccs2)cc1NC(=O)c1ccc(CN2CCOCC2)cc1` [Compound 242], the IC50 (in assay [1]; against human HDAC-1) was less than 1 µM throughout.
Turning to `COc1cc(OC)c2cc(C(=O)Nc3cc(-c4cccs4)ccc3N)oc2c1` [Compound 245e], the IC50 (in assay [1]; on human HDAC-1) was less than 1 µM in each case.
With `Nc1ccc(-c2cccs2)cc1NC(=O)c1ccc2c(c1)OCO2` [Compound 256a], the IC50 (in assay [1]; against human HDAC-1) was less than 1 µM each time.
In the case of `Nc1ccc(-c2cccs2)cc1NC(=O)c1ccc2c(c1)OCCO2` [Compound 256b], the IC50 (in assay [1]; at human HDAC-1) was less than 1 µM each time.
On to `COc1cc(C(=O)Nc2cc(-c3cccs3)ccc2N)cc2c1OCO2` [Compound 256c], for which the IC50 (in assay [1]; at human HDAC-1) was less than 1 µM throughout.
As for `Nc1ccc(-c2cccs2)cc1NC(=O)c1ccc2[nH]cnc2c1` [Compound 258d], the IC50 (in assay [1]; on human HDAC-1) was less than 1 µM each time.
In the case of `Cn1cnc2cc(C(=O)Nc3cc(-c4cccs4)ccc3N)ccc21` [Compound 283], the IC50 (in assay [1]; against human HDAC-1) was less than 1 µM each time.
Take `Cn1nnc2cc(C(=O)Nc3cc(-c4cccs4)ccc3N)ccc21` [Compound 286]: the results for the IC50 (in assay [1]; against human HDAC-1) were 1 to 20 µM and less than 1 µM, respectively.
With `Nc1ccccc1NC(=O)c1ccc(CNC(=O)OCc2cccnc2)cc1` [MS-275, reference compound], in assay [2] (reference compound, value designated), the “effective concentration (EC) for p21 induction” value is 1 µM.
Turning to `Nc1ccc(-c2cccs2)cc1NC(=O)c1ccc(Cn2c(=O)[nH]c3ccccc3c2=O)cc1` [compound 349], the IC50 (in assay [1]; against human HDAC-1) was less than 1 µM in each case. Besides, the “P21 (HCT116) μM, effective concentration” value in assay [2] is listed as “b (1≦b≦20)”.
